Reference: patent US20230024283A1, “HERBICIDAL COMPOUNDS” (SYNGENTA CROP PROTECTION AG, priority 2020, published 2023)

What was measured:
Test in all cases: Post-emergence herbicidal glasshouse test
Assay type in all cases: in vivo
Conditions in all cases: post-emergence spray, evaluated after 13 days, five-point scale
[1] = tested on: Echinochloa crus-galli (ECHCG)
Description: (§1) Seeds of a variety of test species are sown in standard soil in pots (Ipomoea hederacea (IPOHE), Abutilon theophrasti (ABUTH), Amaranthus retoflexus (AMARE), Echinochloa crus-galli (ECHCG), Setaria faberi (SETFA)). After 8 days cultivation under controlled conditions in a glasshouse (at 24/16° C., day/night; 14 hours light; 65% humidity), the plants are sprayed with an aqueous spray solution derived from the formulation of the technical active ingredient in acetone / water (50:50) solution containing 0.5% Tween 20 (polyoxyethelyene sorbitan monolaurate, CAS RN 9005-64-5). Compounds are applied at 1000 g/ha unless otherwise stated. The test plants are then grown in a glasshouse under controlled conditions in a glasshouse (at 24/16° C., day/night; 14 hours light; 65% humidity) and watered twice daily. After 13 days the test is evaluated for the percentage damage caused to the plant. The biological activities are shown in the following table on a five-point scale (5=81-100%; 4=61-80%; 3=41-60%; 2=21-40%; 1=0-20%).

[2] = tested on: Amaranthus retoflexus (AMARE)
Description: as §1

[3] = tested on: Setaria faberi (SETFA)
Description: as §1

[4] = tested on: Ipomoea hederacea (IPOHE)
Description: as §1

[5] = tested on: Abutilon theophrasti (ABUTH)
Description: as §1

SMILES	percentage damage caused to the plant, ECHCG ([1]; 1000 g/ha)	percentage damage caused to the plant, AMARE ([2]; 1000 g/ha)	percentage damage caused to the plant, SETFA ([3]; 1000 g/ha)	percentage damage caused to the plant, IPOHE ([4]; 1000 g/ha)	percentage damage caused to the plant, ABUTH ([5]; 1000 g/ha)	percentage damage caused to the plant, ECHCG ([1]; applied at 500 gai/ha)	percentage damage caused to the plant, AMARE ([2]; applied at 500 gai/ha)	percentage damage caused to the plant, SETFA ([3]; applied at 500 gai/ha)	percentage damage caused to the plant, IPOHE ([4]; applied at 500 gai/ha)	percentage damage caused to the plant, ABUTH ([5]; applied at 500 gai/ha)
N#Cc1cc(-c2ccc(F)c(Cl)c2)c(O)c(C(F)(F)F)c1 [Compound 1.160]	1 (1=0-20%)	5 (5=81-100%)	1 (1=0-20%)	2 (2=21-40%)	1 (1=0-20%)					
Cc1cn(-c2cc(C#N)cc(C(F)(F)F)c2O)nc1C(F)(F)F [Compound 1.187]	1 (1=0-20%)	5 (5=81-100%)	1 (1=0-20%)	1 (1=0-20%)	1 (1=0-20%)					
N#Cc1cc(Cl)c(O)c(-c2cccc(F)c2)c1 [Compound 1.004]	3 (3=41-60%)	5 (5=81-100%)	3 (3=41-60%)	1 (1=0-20%)	5 (5=81-100%)					
CC(C)C(=O)Oc1c(Cl)cc(C#N)cc1-c1cccc(F)c1 [Compound 2.006]	1 (1=0-20%)	3 (3=41-60%)	1 (1=0-20%)	1 (1=0-20%)	4 (4=61-80%)					
N#Cc1cc(Br)c(O)c(-c2ccsc2)c1 [Compound 1.135]	1 (1=0-20%)	2 (2=21-40%)	1 (1=0-20%)	5 (5=81-100%)	5 (5=81-100%)					
N#Cc1cc(Br)c(O)c(-c2cccc(Cl)c2)c1 [Compound 1.054]	3 (3=41-60%)	5 (5=81-100%)	2 (2=21-40%)	2 (2=21-40%)	5 (5=81-100%)					
N#Cc1cc(C#N)c(O)c(-c2cccc(F)c2)c1 [Compound 1.194]	1 (1=0-20%)	2 (2=21-40%)	2 (2=21-40%)	3 (3=41-60%)	3 (3=41-60%)					
N#Cc1cc(-c2cc(F)cc(Cl)c2)c(O)c(C(F)(F)F)c1 [Compound 1.148]						1 (1=0-20%)	3 (3=41-60%)	1 (1=0-20%)	4 (4=61-80%)	1 (1=0-20%)
N#Cc1cc(Br)c(O)c(-c2cccc(F)c2)c1 [Compound 1.046, 3-bromo-5-(3-fluorophenyl)-4-hydroxy-benzonitrile]	2 (2=21-40%)	5 (5=81-100%)	3 (3=41-60%)	3 (3=41-60%)	5 (5=81-100%)					
N#Cc1cc(Br)c(O)c(-c2cccc(C(F)(F)F)c2)c1 [Compound 1.060]	1 (1=0-20%)	5 (5=81-100%)	1 (1=0-20%)	2 (2=21-40%)	4 (4=61-80%)					
N#Cc1cc(-n2cc(Cl)c(C(F)F)n2)c(O)c(C(F)(F)F)c1 [Compound 1.250]	2 (2=21-40%)	5 (5=81-100%)	2 (2=21-40%)	5 (5=81-100%)	2 (2=21-40%)					
N#Cc1cc(-c2cccc(F)c2)c(O)c(C(F)(F)F)c1 [Compound 1.005]	4 (4=61-80%)	4 (4=61-80%)	1 (1=0-20%)	5 (5=81-100%)	5 (5=81-100%)					
N#Cc1cc(-c2cccc(F)c2)c(O)c([N+](=O)[O-])c1 [Compound 1.191]	2 (2=21-40%)	5 (5=81-100%)	2 (2=21-40%)	3 (3=41-60%)	4 (4=61-80%)					
N#Cc1cc(Br)c(O)c(-c2ccc(F)cc2)c1 [Compound 1.048]	2 (2=21-40%)	5 (5=81-100%)	2 (2=21-40%)	2 (2=21-40%)	5 (5=81-100%)					
N#Cc1cncc(-c2cc(C#N)cc(Br)c2O)c1 [Compound 1.067]	2 (2=21-40%)	1 (1=0-20%)	2 (2=21-40%)	2 (2=21-40%)	3 (3=41-60%)					
N#Cc1cc(-c2ccc(OC(F)(F)F)cc2)c(O)c(C(F)(F)F)c1 [Compound 1.151]	1 (1=0-20%)	5 (5=81-100%)	1 (1=0-20%)	3 (3=41-60%)	1 (1=0-20%)					
N#Cc1cc(-n2cc(C(F)(F)F)cn2)c(O)c(C(F)(F)F)c1 [Compound 1.190]	1 (1=0-20%)	3 (3=41-60%)	1 (1=0-20%)	1 (1=0-20%)	1 (1=0-20%)					
N#Cc1cc(Br)c(O)c(-c2cccc(Cl)c2F)c1 [Compound 1.045]	1 (1=0-20%)	5 (5=81-100%)	1 (1=0-20%)	1 (1=0-20%)	3 (3=41-60%)					
N#Cc1cc(-c2cc(F)cc(F)c2)c(O)c(C(F)(F)F)c1 [Compound 1.183]	2 (2=21-40%)	5 (5=81-100%)	2 (2=21-40%)	2 (2=21-40%)	4 (4=61-80%)					
Cc1cc(F)cc(-c2cc(C#N)cc(C(F)(F)F)c2O)c1 [Compound 1.162]	1 (1=0-20%)	2 (2=21-40%)	1 (1=0-20%)	3 (3=41-60%)	1 (1=0-20%)					
N#Cc1cc(Br)c(O)c(-c2cnc3c(c2)OC(F)(F)O3)c1 [Compound 1.036]	3 (3=41-60%)	5 (5=81-100%)	4 (4=61-80%)	3 (3=41-60%)	2 (2=21-40%)					
